Source: PubChem BioAssay (NCI)
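96-well plates; 48 h exposure; 5 concentrations. Endpoints by linear interpolation between flanking doses. Not reached: highest tested concentration assigned. Definition used: TGI = concentration required for complete inhibition of growth.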

Assays:
Assay in all cases: DTP human tumour cell line panel, 48 h
A549 NSCLC = test system: A549 NSCLC
IGROV1 ovarian = test system: IGROV1 ovarian
MDA-N = test system: MDA-N
HCT-15 colon = test system: HCT-15 colon
SF-539 CNS = test system: SF-539 CNS
HCT-116 colon = test system: HCT-116 colon
TK-10 renal = test system: TK-10 renal
HL-60(TB) leukemia = test system: HL-60(TB) leukemia
HOP-92 NSCLC = test system: HOP-92 NSCLC
HOP-62 NSCLC = test system: HOP-62 NSCLC
EKVX NSCLC = test system: EKVX NSCLC
HT29 colon = test system: HT29 colon
RXF 393 renal = test system: RXF 393 renal
SK-MEL-28 melanoma = test system: SK-MEL-28 melanoma
SF-295 CNS = test system: SF-295 CNS
MOLT-4 leukemia = test system: MOLT-4 leukemia
SF-268 CNS = test system: SF-268 CNS
UACC-62 melanoma = test system: UACC-62 melanoma
SW-620 colon = test system: SW-620 colon
M14 melanoma = test system: M14 melanoma
RPMI-8226 leukemia = test system: RPMI-8226 leukemia
SK-MEL-5 melanoma = test system: SK-MEL-5 melanoma
HS 578T breast = test system: HS 578T breast
MDA-MB-231 breast = test system: MDA-MB-231 breast
NCI-H460 lung = test system: NCI-H460 lung
ACHN renal = test system: ACHN renal
HCC-2998 colon = test system: HCC-2998 colon
DU-145 prostate = test system: DU-145 prostate
U251 CNS = test system: U251 CNS
T-47D breast = test system: T-47D breast
NCI-H226 lung = test system: NCI-H226 lung
OVCAR-3 ovarian = test system: OVCAR-3 ovarian
SK-MEL-2 melanoma = test system: SK-MEL-2 melanoma
OVCAR-5 ovarian = test system: OVCAR-5 ovarian
OVCAR-8 ovarian = test system: OVCAR-8 ovarian
A498 renal = test system: A498 renal
KM12 colon = test system: KM12 colon
K-562 leukemia = test system: K-562 leukemia
UACC-257 melanoma = test system: UACC-257 melanoma
BT-549 breast = test system: BT-549 breast
SNB-19 CNS = test system: SNB-19 CNS
UO-31 renal = test system: UO-31 renal
NCI-H23 lung = test system: NCI-H23 lung
COLO 205 colon = test system: COLO 205 colon
786-0 renal = test system: 786-0 renal
MCF7 breast = test system: MCF7 breast
SNB-75 CNS = test system: SNB-75 CNS
NCI/ADR-RES ovarian = test system: NCI/ADR-RES ovarian
SN12C renal = test system: SN12C renal
OVCAR-4 ovarian = test system: OVCAR-4 ovarian
MDA-MB-435 = test system: MDA-MB-435
SK-OV-3 ovarian = test system: SK-OV-3 ovarian
CCRF-CEM leukemia = test system: CCRF-CEM leukemia
SR leukemia = test system: SR leukemia
MALME-3M melanoma = test system: MALME-3M melanoma
PC-3 prostate = test system: PC-3 prostate
CAKI-1 renal = test system: CAKI-1 renal
NCI-H522 lung = test system: NCI-H522 lung

Measured: TGI

O=C1CSC(c2c[nH]c3ccccc23)N1c1ccc(Cl)cc1 (stereo unspecified)
> 100 µM: A549 NSCLC | IGROV1 ovarian | MDA-N | HCT-15 colon | SF-539 CNS | HCT-116 colon | TK-10 renal | HL-60(TB) leukemia | HOP-92 NSCLC | HOP-62 NSCLC | EKVX NSCLC | HT29 colon | RXF 393 renal | SK-MEL-28 melanoma | SF-295 CNS | MOLT-4 leukemia | SF-268 CNS | UACC-62 melanoma | SW-620 colon | M14 melanoma | RPMI-8226 leukemia | SK-MEL-5 melanoma | HS 578T breast | MDA-MB-231 breast | NCI-H460 lung | ACHN renal | HCC-2998 colon | DU-145 prostate | U251 CNS | T-47D breast | NCI-H226 lung | OVCAR-3 ovarian | SK-MEL-2 melanoma | OVCAR-5 ovarian | OVCAR-8 ovarian | A498 renal | KM12 colon | K-562 leukemia | UACC-257 melanoma | BT-549 breast | SNB-19 CNS | UO-31 renal | NCI-H23 lung | COLO 205 colon | 786-0 renal | MCF7 breast | SNB-75 CNS | NCI/ADR-RES ovarian | SN12C renal | OVCAR-4 ovarian | MDA-MB-435 | SK-OV-3 ovarian

COC(=O)C1CCC(=S)N1C(=O)OCc1ccccc1 (stereo unspecified)
> 100 µM: A549 NSCLC | IGROV1 ovarian | MDA-N | CCRF-CEM leukemia | HCT-15 colon | HCT-116 colon | TK-10 renal | HOP-92 NSCLC | HOP-62 NSCLC | SR leukemia | EKVX NSCLC | HT29 colon | RXF 393 renal | SK-MEL-28 melanoma | SF-295 CNS | MOLT-4 leukemia | SF-268 CNS | UACC-62 melanoma | SW-620 colon | M14 melanoma | RPMI-8226 leukemia | SK-MEL-5 melanoma | HS 578T breast | MDA-MB-231 breast | NCI-H460 lung | ACHN renal | HCC-2998 colon | DU-145 prostate | U251 CNS | T-47D breast | OVCAR-3 ovarian | SK-MEL-2 melanoma | OVCAR-5 ovarian | OVCAR-8 ovarian | MALME-3M melanoma | A498 renal | PC-3 prostate | KM12 colon | K-562 leukemia | UACC-257 melanoma | BT-549 breast | SNB-19 CNS | UO-31 renal | NCI-H23 lung | COLO 205 colon | 786-0 renal | MCF7 breast | SNB-75 CNS | NCI/ADR-RES ovarian | OVCAR-4 ovarian | MDA-MB-435 | SK-OV-3 ovarian | CAKI-1 renal | NCI-H522 lung
